The source of these data is patent US8993527B2, “Methods, compositions, and formulations for preventing or reducing adverse effects in a patient” (Pericor Therapeutics, Inc., priority 2005, dated 2015).

Counter-ions that a name gives are not always drawn.

Data set [1] has as its system longitudinal muscle from the guinea pig ileum. Put plainly: Inhibition of stimulated contraction in isolated ileum. Conditions: electrically stimulated guinea pig ileum muscle. From the text: These are detailed in Table II.
Data set [2] deals with T1, NBTI-specific adenosine transport site (UniProt O54698).
T1 sequence (O54698 1-457): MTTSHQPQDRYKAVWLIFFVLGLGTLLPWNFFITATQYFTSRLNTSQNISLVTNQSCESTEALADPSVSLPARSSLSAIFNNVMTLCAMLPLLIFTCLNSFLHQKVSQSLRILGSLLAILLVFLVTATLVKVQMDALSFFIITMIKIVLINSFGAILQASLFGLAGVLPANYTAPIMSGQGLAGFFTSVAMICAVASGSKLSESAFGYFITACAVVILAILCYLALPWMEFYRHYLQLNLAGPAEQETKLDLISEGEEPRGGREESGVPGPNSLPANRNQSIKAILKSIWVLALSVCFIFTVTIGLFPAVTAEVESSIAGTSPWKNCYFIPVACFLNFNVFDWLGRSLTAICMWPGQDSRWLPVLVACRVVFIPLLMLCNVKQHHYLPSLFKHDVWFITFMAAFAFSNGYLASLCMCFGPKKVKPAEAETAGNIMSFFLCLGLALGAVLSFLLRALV
Put plainly: [3H]-NBTI binding assay. The note with it: read-out: ED50 (50% displacement of bound [3H]-NBTI); 0.5 mg neuronal membrane protein, 0.5 nM [3H]-NBTI, 30 minutes. How it is done: Increasing concentrations of the test compounds were incubated for 30 minutes with 0.5 mg neuronal membrane protein together with 0.5 nM [^3 H]-NBTI in a Tris buffer (pH 7.4) at room temperature. The assays were quenched and membranes collected by rapid filtration. Filters were then solubilized and radioactivity determined by scintillation counting.

For data set [3], the target named is T2, purified pig heart adenosine kinase (Sus scrofa, UniProt A0A5G2R0F5).
T2 construct: 0.1 μg of purified pig heart adenosine kinase; from tissue; host or cells: pig heart
T2 sequence (A0A5G2R0F5 1-362): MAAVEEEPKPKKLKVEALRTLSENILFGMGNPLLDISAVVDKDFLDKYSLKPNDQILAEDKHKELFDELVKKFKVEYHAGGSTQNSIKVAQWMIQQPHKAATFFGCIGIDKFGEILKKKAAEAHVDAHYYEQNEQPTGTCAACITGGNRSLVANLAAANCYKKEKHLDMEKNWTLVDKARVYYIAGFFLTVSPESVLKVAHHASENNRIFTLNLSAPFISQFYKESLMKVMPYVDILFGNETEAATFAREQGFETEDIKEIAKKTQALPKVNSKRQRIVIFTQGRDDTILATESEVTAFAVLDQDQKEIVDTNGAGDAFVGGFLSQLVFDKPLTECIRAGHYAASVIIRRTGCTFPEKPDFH
The experiment in a line: Adenosine kinase activity. It is filed as biochemical. Conditions: 0.5 μM [U14C] adenosine, 1 mM ATP, 20 minutes at 37° C. As to the method: Inhibition of enzyme activity was determined using a 0.1 ml assay mixture containing 50 mM Tris-maleate, pH 7.0, 0.1% (w/v) BSA, 1 mM ATP, 1 mM MgCl2, 0.5 μM [U^14 C] adenosine (500 mCi/mmol) and 0.1 μg of purified pig heart adenosine kinase. Different concentrations of test compound were incubated in the assay mixture for 20 minutes at 37° C. From each reaction mixture, 20 μl portions were removed and spotted on 2^2 pieces of Whatman DE81 filter paper. The papers were then washed to remove [^14 C] adenosine in 1 mM ammonium formate followed by deionized water and finally 95% ethanol. The papers were dried, and [^14C] AMP measured by scintillation counting. Activities were determined from the amount of [^14C] AMP formed.

For data set [4], the system named is platelet aggregation in human whole blood. The experiment in a line: Inhibition of platelet aggregation in human whole blood. Type of data set: cell-based. Conditions: Homo sapiens, Platelet, 10 min, 10 minutes at 37° C., 10 µM adenosine added, ADP (6-25 μM). As to the method:
Whole blood was drawn from healthy donors and collected in 0.1 vol. of sodium citrate to prevent coagulation. Platelet aggregation was measured by the impedance technique using a Whole Blood Aggregometer. The test compounds were incubated in whole blood for 10 minutes at 37° C. and 10 µM adenosine was added 5 minutes before eliciting aggregation. Aggregation was induced by addition of ADP (6-25 μM) at the minimum concentration inducing full aggregation in untreated controls.

Data set [5] addresses T3, calf intestinal musosa adenosine deaminase (Bos taurus, UniProt P56658).
T3 construct: 0.002 units of calf intestinal musosa adenosine deaminase; from tissue; host or cells: calf intestinal mucosa
The experiment in a line: Adenosine deaminase activity. Type of data set: biochemical. Conditions: 80 μM adenosine, 10 minutes at 37° C. How it is done: Different concentrations of the test compounds were incubated in the assay mixture for 10 minutes at 37° C. The reaction was monitored continuously for oxidation of NADH from the change in absorbance at 340 nm.

In the next data set the test system is AMP deaminase. Put plainly: Inhibition of AMP deaminase (14C-AMP to 14C-IMP). It is filed as biochemical, human. Conditions: 200 μM of each ribotide. How it is done:
The phosphorylated forms are referred to as AICA ribotide and ribavirin monophosphate, respectively. Using 200 μM of each ribotide, AMP deaminase was inhibited 38% and 54%, respectively.

The subject of data set [6] is granulocytes and endothelial cells. Put plainly: Granulocyte/endothelial cell interaction, intravital microscopy of mesentery microvessels. It is filed as in vivo, rat. Conditions: superfusion with 20 μM, approximately 2 μM in the vessel. How it is done: The parameter measured was the fracture stress between the two cell types.
These studies were performed by intravital microscopy filming of granulocytes in rat mesentary microvessels. The rolling velocity of granulocytes compared to the streaming velocity of red cells was calculated before and after the administration of adenosine.

For the next data set, the system named is brain ischemia. The experiment in a line: Gerbil stroke model: hippocampal pyramidal cell survival. It is filed as in vivo. The note with it: pretreatment with 500 mg/kg (FIG. 21). How it is done: Ischemia was then induced by bilateral occlusion of both common carotid arteries for 5 minutes. Seven days following the ischemic insult, brains were removed and processed for histology.

The subject of the next data set is ischemic rat hearts. The experiment in a line: Rat heart ischemia model: tissue adenosine levels. It is filed as in vivo. As to the method:
Male rats were injected intraperitonealy with either the AICA riboside analog, AICA riboside or saline, as a control. After 60 minutes, the hearts were excised and incubated at 37° C. for a further 60 minutes. Tissue extracts were prepared and analyzed for adenosine by high performance liquid chromatography (HPLC).

Data set [7] is described as follows: Oral bioavailability and half-life in fasted adult beagles. It is filed as in vivo, dog. As to the method:
Heparinized blood and urine were collected at selected intervals over 24 hours. Each sample was chilled, centrifuged at 4° C. and frozen prior to HPLC analysis.

Data set [8] has as its system coronary endothelial cells. Put plainly: Inhibition of adenosine utilization in cell culture. Type of data set: cell-based. Conditions: Endothelial cell, 1 μM [3H] adenosine, 15 minutes. As to the method:
In this assay, endothelial cells were incubated with 5 μM or 50 μM of the test compound together with 1 μM [^3H] adenosine for 15 minutes. Inhibition of adenosine utilization was determined by measuring the concentration of extracellular adenosine by scintillation counting following separation by thin layer chromatography (TLC).

The subject of a further data set is demand-induced ischemia. Put plainly: Canine model of stable angina (repeated pacing with LAD stenosis). Type of data set: in vivo, dog. As to the method: Anesthetized male dogs were instrumented to measure regional myocardial wall thickening during right atrial pacing in the presence of a stenosis of the left anterior descending artery (Young & Mullane Am. J. Physiol. in press (1991)). In Table XIA, the effects on wall thickening and arterial pressure of six repeated episodes of pacing in animals treated with a continuous IV infusion of 50 μg/kg/min of the test compound administered post-pace #1 are compared with saline-treated control animals.

The test system of data set [9] is Mouse bone marrow-derived mast cells. The experiment in a line: Ribavirin: mast cell β-hexosaminidase release.

T3 sequence (P56658 whole entry): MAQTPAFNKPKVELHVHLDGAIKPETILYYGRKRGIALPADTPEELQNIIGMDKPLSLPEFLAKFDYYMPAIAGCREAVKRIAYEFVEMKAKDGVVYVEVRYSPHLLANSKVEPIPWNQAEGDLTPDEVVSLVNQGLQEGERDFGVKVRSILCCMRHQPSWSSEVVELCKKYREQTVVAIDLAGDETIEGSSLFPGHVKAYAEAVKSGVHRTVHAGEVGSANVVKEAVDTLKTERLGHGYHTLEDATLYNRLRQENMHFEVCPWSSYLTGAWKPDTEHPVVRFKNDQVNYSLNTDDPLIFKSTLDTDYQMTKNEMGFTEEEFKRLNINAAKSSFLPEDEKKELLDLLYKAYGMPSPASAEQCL

On to `NC(=O)c1nc(S)n([C@@H]2O[C@H](CO)[C@@H](O)[C@H]2O)c1N` [27 (1-395), 5-amino-2-thio-1-β-D-ribofuranosyl imidazole-4-carboxamide], for which the melting point was 205 to 208 °C. The IC50 in data set [1] (Cavia porcellus) is 500 µM. For the same molecule, in [2], the EC50 was 344 µM. This molecule registered an IC50 in data set [3] of 8 µM. In addition, inhibition in [4] was half-maximal at 950 µM (IC50).
Consider `CCCCO[C@@H]1[C@H](O)[C@@H](CO)O[C@H]1n1cnc(C(N)=O)c1N` [32 (1-262), 5-amino-1-(2-O-n-butyl-β-D-ribofuranosyl)imidazole-4-carboxamide], for which the IC50 in data set [5] is 175 µM.
On to `NC(=O)c1ncn([C@@H]2O[C@H](COP(=O)(O)O)[C@@H](O)[C@H]2O)c1N` [AICA ribotide], for which, in the data set with AMP deaminase, the AMP deaminase inhibited is given as 38%.
For the molecule `Nc1ncnc2c1ncn2[C@@H]1O[C@H](CO)[C@@H](O)[C@H]1O` [Adenosine, 9-β-D-ribofuranosyladenine], the “rolling velocity of granulocytes in microvessels” value in data set [6] is “twofold increase”.
Molecule `Nc1c(C(=O)NC2CCCC2)ncn1C1OC(CO)C(O)C1O` [Compound No. 10 (1-186), 5-Amino-1-beta-D-ribofuranosylimidazole-4-N-(cyclopentyl)carboxamide] displayed a melting point of 158 to 160 °C. Further, the EC50 in data set [2] was found to be 350 µM. The “effect in a gerbil model of brain ischemia” value in the data set on brain ischemia was “demonstrated protective effects”.
For the molecule `Nc1c(C(=O)NCc2ccccc2)ncn1[C@@H]1O[C@H](CO)[C@@H](O)[C@H]1O` [Compound No. 11 (1-226), 5-Amino-1-beta-D-ribofuranosylimidazole-4-N-(benzyl)carboxamide], the midpoint of inhibition in data set [1], the IC50, lay at 200 µM. Besides, the “Tissue Adenosine Levels (% Increase vs. Saline)” value with ischemic rat hearts (Expt 1) was 53%; in the data set with ischemic rat hearts (Expt 2), 45%. Moreover, the “effect in a gerbil model of brain ischemia” value in the data set with brain ischemia is reported as “demonstrated protective effects”.
On to `NC[C@H]1O[C@@H](n2cnc(C(N)=O)c2N)[C@H](O)[C@@H]1O` [Compound No. 21 (1-227), 5′-Amino-5′-deoxy-AICA-riboside], for which, in data set [1], the IC50 was found to be 800 µM. Further, the “Half Life” value in data set [7] came to 1.30 h. Moreover, the “Absolute Oral Bioavailability %” value in [7] (10 mg/kg IV bolus and 20 mg/kg via stomach tube) was 71 ± 13 (n = 2) %.
As for `NC[C@H]1O[C@@H](n2cnc(C(=O)NCc3ccc(Cl)cc3)c2N)[C@H](O)[C@@H]1O` [Compound No. 53 (1-468), 5-Amino-1-(5-amino-5-deoxy-β-D-ribofuranosyl)imidazole-4-N-[(4-chlorophenyl)methyl]carboxamide Hydrochloride], the IC50 turned out to be 70 µM in data set [1] (Cavia porcellus) and 150 µM in data set [4]. Also, testing at 5 µM in data set [8] (5 μM) gave an inhibition of 34 ± 4%. In data set [8] (50 μM), the inhibition at 50 µM was determined as 58 ± 2%. In data set [2], the EC50 is around 100 µM. This molecule also gave a half-life in data set [7] (beagle, dog, in vivo) of 5.61 h. Also, the bioavailability in data set [7] (beagle, dog, in vivo, po, 10 mg/kg IV bolus and 20 mg/kg via stomach tube, read-out: Absolute Oral Bioavailability %) was 32 ± 11%. The “Heart Rate” value with demand-induced ischemia (Baseline) is on record as 143 ± 6 beats/min. In addition, the “Mean Arterial Pressure” value in the data set with demand-induced ischemia (Baseline) is given as 86 ± 5 mm Hg. Further, the “% of NON-ISCHEMIC WALL THICKENING” value in the data set on demand-induced ischemia (Pace # 1 (before infusion), 50 μg/kg/min IV post-pace #1) is listed as 49.5 ± 6.5%; in the data set on demand-induced ischemia (Pace # 2), 46.7 ± 7.0%; in the data set with demand-induced ischemia (Pace # 3) it was 54.2 ± 9.4 %; with demand-induced ischemia (Pace # 4), 48.1 ± 7.6 %; with demand-induced ischemia (Pace # 5) it was 47.5 ± 8.2 %; with demand-induced ischemia (Pace # 6) it was 42.1 ± 7.0 %. The “Heart Rate, Change from Baseline” value with demand-induced ischemia (Post Pace Rest Period 1) is recorded as 1 ± 2 beats/min; with demand-induced ischemia (Post Pace Rest Period 2) it was −2 ± 4 beats/min; in the data set with demand-induced ischemia (Post Pace Rest Period 3) it was −1 ± 3 beats/min; in the data set on demand-induced ischemia (Post Pace Rest Period 4), 2 ± 4 beats/min; in the data set with demand-induced ischemia (Post Pace Rest Period 5), 1 ± 4 beats/min; with demand-induced ischemia (Post Pace Rest Period 6), 2 ± 4 beats/min. Also, the “Mean Arterial Pressure, Change from Baseline” value in the data set with demand-induced ischemia (Post Pace Rest Period 1) is −1 ± 3 mm Hg; in the data set with demand-induced ischemia (Post Pace Rest Period 2), −2 ± 3 mm Hg; with demand-induced ischemia (Post Pace Rest Period 3), −8 ± 3 mm Hg; in the data set with demand-induced ischemia (Post Pace Rest Period 4) it was −7 ± 3 mm Hg; in the data set with demand-induced ischemia (Post Pace Rest Period 5) it was −8 ± 3 mm Hg; with demand-induced ischemia (Post Pace Rest Period 6) it was −7 ± 3 mm Hg.
In the case of `C[C@H]1O[C@@H](n2c(S)nc(C(N)=O)c2N)[C@H](O)[C@@H]1O` [Compound No. 67 (1-535), 5-Amino-2-thio-1-βD-(5 deoxyribofuranosyl)imidazole-4-carboxamide], in data set [3], half-maximal inhibition (IC50) was put at 23 µM. This lies in the double-digit micromolar range.
Molecule `NC[C@H]1O[C@@H](n2c(S)nc(C(N)=O)c2N)[C@H](O)[C@@H]1O` [Compound No. 70 (1-551), 5-Amino-2-thio-1-(5-amino-5-deoxy-β-D-ribofuranosyl)imidazole-4-carboxamide] displayed an IC50 in data set [3] of 17 µM.
Take `NC(=O)c1ncn([C@@H]2O[C@H](COP(=O)(O)O)[C@@H](O)[C@H]2O)n1` [ribavirin monophosphate]: the AMP deaminase inhibited in the data set with AMP deaminase turned out to be 54%.
In the case of `NC(=O)c1ncn([C@@H]2O[C@H](CO)[C@@H](O)[C@H]2O)n1` [ribavirin, 1-β-D-ribofuranosyl-1H-1,2,4-triazole-3-carboxamide], the mediator release entry in [9] (1 μM for six days) is listed as “inhibits mediator release significantly”. The β-hexosaminidase release result in data set [9] (10 μM added at the time of mast cell stimulation) is “does not affect”; in [9] (three to seven days in 10 μM, washed, A23187 challenge) it was “marked attenuation”.
